How the values were obtained:
[1] = system: melanoma, renal cell carcinoma, and ovarian cancer; conditions: murine models; cited from earlier work
[2] = system: pancreatic adenocarcinoma; conditions: murine pancreatic adenocarcinoma; cited from earlier work
[3] = system: solid tumors, e.g. advanced or metastatic melanoma; assay: Biomarker findings in tumors; format: in vivo
Description: Granzyme B is associated with cell death/apoptosis mediated by cytotoxic T lymphocytes (CTLs), natural killer (NK) cells, and cytotoxic T cells. Accordingly, in some embodiments, the biomarker is an observed increase in granzyme B expression in a tumor relative to a control. In some embodiments, the cancer is a solid tumor such as advanced or metastatic melanoma. […] Accordingly, in some embodiments, the biomarker is an observed increase in CD8^+ T cells and/or CD4^+ T cells in a tumor relative to a control. In other embodiments, the biomarker is an increase in the ratio of CD8^+ T cells to Treg cells. In some embodiments, the increase is observed by immunohistochemistry or expression levels of one or both of CD8A and CD8B. In some embodiments, an increase in CD8^+ T cells and/or CD4^+ T cells or CD8^+ T cells/Treg ratio in a tumor sample from a patient who has undergone treatment with […]-001 or X4-136 correlates with an increased likelihood that the patient will benefit from continued treatment with […]-001 alone or in combination with an immunotherapeutic agent, e.g., a checkpoint inhibitor such as a PD-1 antagonist. In some embodiments, the PD-1 antagonist is selected from nivolumab and pembrolizumab, or a biosimilar or variant of such PD-1 antagonists. In some embodiments, the checkpoint inhibitor is nivolumab. In some embodiments, the checkpoint inhibitor is a nivolumab biosimilar or variant. In some embodiments, the checkpoint inhibitor is pembrolizumab. In some embodiments, the checkpoint inhibitor is a pembrolizumab biosimilar or variant. In some embodiments, the tumor is a solid tumor such as advanced or metastatic melanoma. […] In some embodiments, the biomarker is IDO1. In some embodiments, the biomarker is CXCL10. In some embodiments, the biomarker is CXCL9. In some embodiments, the biomarker is HLA-DRA. In some embodiments, the biomarker is STAT1. In some embodiments, the biomarker is IFN-γ. In some embodiments, the biomarker is two or more of IDOL, CXCL10, CXCL9, HLA-DRA, STAT1 and IFN-γ. In some embodiments, the biomarker is three or more of IDO1, CXCL10, CXCL9, HLA-DRA, STAT1 and IFN-γ. In some embodiments, the biomarker is four or more of IDOL, CXCL10, CXCL9, HLA-DRA, STAT1 and IFN-γ. In some embodiments, the biomarker is five or more of IDOL, CXCL10, CXCL9, HLA-DRA, STAT1 and IFN-γ. In some embodiments, the biomarker is all of IDOL, CXCL10, CXCL9, HLA-DRA, STAT1 and IFN-γ. In some embodiments, the biomarker is an increase of all of IDO1, CXCL10, CXCL9, HLA-DRA, STAT1 and IFN-γ. In some embodiments, an increase in one, two, three, four, five, or all of IDOL, CXCL10, CXCL9, HLA-DRA, STAT1 and IFN-γ in a tumor sample from a patient who has undergone treatment with […]-001 correlates with an increased likelihood that the patient will benefit from continued treatment with […]-001 alone or in combination with an immunotherapeutic agent, e.g., a checkpoint inhibitor such as a PD-1 antagonist. In some embodiments, the PD-1 antagonist is selected from nivolumab and pembrolizumab, or a biosimilar or variant of such PD-1 antagonists. In some embodiments, the checkpoint inhibitor is nivolumab. In some embodiments, the checkpoint inhibitor is a nivolumab biosimilar or variant. In some embodiments, the checkpoint inhibitor is pembrolizumab. In some embodiments, the checkpoint inhibitor is a pembrolizumab biosimilar or variant. In some embodiments, the tumor is a solid tumor such as advanced or metastatic melanoma. In some embodiments, the biomarker or the use thereof is one of those described in Ayers et al., Journal of Clinical Investigation 2017, 127(8), 2930-2940 [29] (“Ayers et al. (2017)”) or WO 2016/094377, each of which is hereby incorporated by reference. […] Accordingly, in some embodiments, the biomarker is maintenance or decrease of Treg levels in a tumor relative to a control. In some embodiments, the biomarker is the level of FoxP3 expression, which serves as a means to determine the Treg level. […]

B16-OVA tumors = assay: B16-OVA syngeneic melanoma tumor growth; format: in vivo, C57BL/6 mice; conditions: sixteen (16) days of treatment, regimens of Table 9
Experimental: B16-OVA cells (˜1×10^5) were implanted in C57BL/6 mice. Animals were evaluated periodically and when tumors attained a size of approximately 3 mm×3 mm, animals were then grouped randomly and treated for sixteen (16) days.
At the end of treatment animals were sacrificed and dissected to evaluate and sample tumor masts.

[4] = system: unresectable or metastatic melanoma; conditions: Phase 3 trial, P<0.001; cited from earlier work
[5] = solid tumors, e.g. advanced or metastatic melanoma

c1cc(CN2CCCNCCNCCCNCC2)ccc1CN1CCCNCCNCCCNCC1 [AMD3100, reference compound]
anti-tumor activity [1]: significant anti-tumor activity, including decreased metastasis and increased overall survival | T-cell accumulation among the cancer cells [2]: induced rapid T-cell accumulation

Cc1cccnc1[C@H]1CCC[C@@H](c2ncccc2C)N1CCCCN [X4-136]
CTL signature gene expression in tumor samples or the tumor microenvironment ([3]; in vivo): increase | IFN-γ gene signature (panel of IFN-γ related genes) ([3]; in vivo): increase | PD-L1 expression in tumor samples and the tumor microenvironment ([3]; in vivo): increase | granzyme B (GZMB) expression in cancers [3, 5]: increases | levels of Treg cells [3, 5]: without significantly increasing | levels of macrophages in the tumor [3, 5]: without significantly modulating | observed numbers of CD8+ T cells and/or CD4+ T cells in cancers [3, 5]: increases | levels of the VISTA panel of biomarkers ([3]; tumor samples and the tumor microenvironment): modulate

NCCCCN(Cc1nc2ccccc2[nH]1)[C@H]1CCCc2cccnc21 [X4P]
tumor volumes (B16-OVA tumors): substantially reduced tumor volumes

Pembrolizumab: humanized IgG4 kappa monoclonal antibody that blocks the interaction between PD-1 and its ligands
objective response rate [4]: 33%

ipilimumab: anti-CTLA-4 antibody
objective response rate [4]: 12%

From patent US20210349099A1, “CANCER BIOMARKERS AND METHODS OF USE THEREOF” (X4 Pharmaceuticals, Inc., priority 2017, published 2021)
